The target in one data set is CYP2D6 (Homo sapiens, UniProt P10635). In words: Inhibition of CYP2D6 at 10 uM. In kind it is ADME.
Another data set concerns the target CYP2C9 (Homo sapiens, UniProt P11712). As to the kind of experiment: Inhibition of CYP2C9 at 10 uM. In kind it is ADME.
A short description of data set [1]: Plasma protein binding in human. It counts as ADME, cell-free. The note with it: read-out: PPB (converted).
The target in data set [2] is T1, Acid-sensing ion channel 3 (Homo sapiens, UniProt Q9UHC3).
T1 sequence (Q9UHC3 whole entry): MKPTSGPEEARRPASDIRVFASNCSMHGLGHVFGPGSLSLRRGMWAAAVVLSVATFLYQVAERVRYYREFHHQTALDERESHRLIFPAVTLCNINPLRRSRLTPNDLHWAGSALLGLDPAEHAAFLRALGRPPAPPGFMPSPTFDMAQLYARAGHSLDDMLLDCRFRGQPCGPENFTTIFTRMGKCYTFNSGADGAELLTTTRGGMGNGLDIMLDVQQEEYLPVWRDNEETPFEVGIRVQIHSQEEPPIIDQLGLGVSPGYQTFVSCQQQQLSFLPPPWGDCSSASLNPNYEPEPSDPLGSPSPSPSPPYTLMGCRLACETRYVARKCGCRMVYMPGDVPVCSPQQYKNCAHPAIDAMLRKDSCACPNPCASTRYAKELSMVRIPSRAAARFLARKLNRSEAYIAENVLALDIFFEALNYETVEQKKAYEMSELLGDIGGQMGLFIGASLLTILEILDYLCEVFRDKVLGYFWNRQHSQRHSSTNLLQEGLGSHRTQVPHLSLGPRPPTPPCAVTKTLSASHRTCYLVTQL
In words: Inhibition of human ASIC3 expressed in HEK293 cells assessed as inhibition of acid-evoked current by manual patch-clamp electrophysiology assay. In kind it is cell-based. Background: Patch clamp records ionic current or voltage across a cell membrane.

Data set [3] can be described thus: Plasma protein binding in rat. It counts as ADME, cell-free. The note with it: read-out: PPB (converted).
Data set [4] addresses Voltage-dependent L-type calcium channel subunit alpha-1C (Homo sapiens, UniProt Q13936). As to the kind of experiment: Inhibition of Cav1.2.
Data set [5] can be described thus: Lipophilicity, log D of the compound by HPLC. In kind it is physicochemical.
For another data set, the target named is CYP3A4 (Homo sapiens, UniProt P08684). In words: Inhibition of CYP3A4 at 10 uM. It counts as ADME.
CYP3A4, sequence (P08684 whole entry): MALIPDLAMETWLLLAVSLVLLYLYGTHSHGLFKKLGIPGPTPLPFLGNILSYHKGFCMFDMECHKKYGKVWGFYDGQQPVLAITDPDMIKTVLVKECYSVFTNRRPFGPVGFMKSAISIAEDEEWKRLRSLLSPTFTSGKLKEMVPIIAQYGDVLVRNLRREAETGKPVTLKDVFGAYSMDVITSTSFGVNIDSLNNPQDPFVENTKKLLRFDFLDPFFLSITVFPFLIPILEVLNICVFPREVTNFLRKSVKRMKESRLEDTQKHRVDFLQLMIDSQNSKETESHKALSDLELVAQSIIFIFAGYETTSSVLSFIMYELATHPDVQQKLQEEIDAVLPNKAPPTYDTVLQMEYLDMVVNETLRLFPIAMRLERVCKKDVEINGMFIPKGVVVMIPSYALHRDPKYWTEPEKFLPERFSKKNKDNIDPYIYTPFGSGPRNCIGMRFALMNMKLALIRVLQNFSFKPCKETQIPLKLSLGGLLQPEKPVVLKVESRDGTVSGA
Data set [6] deals with T2, Acid-sensing ion channel 3 (Homo sapiens) (UniProt Q9UHC3).
T2 sequence (whole entry): T1 sequence (Q9UHC3 whole entry)
As to the kind of experiment: Inhibition of human ASIC3 expressed in HEK293 cells assessed as inhibition of acid-evoked current at 10 uM by manual patch-clamp electrophysiology assay. In kind it is cell-based.

Data set [7] deals with T2, Acid-sensing ion channel 3 (Homo sapiens). As to the kind of experiment: Inhibition of human ASIC3 expressed in HEK293 cells assessed as inhibition of acid-evoked current at 500 uM by manual patch-clamp electrophysiology assay. In kind it is cell-based.
The target of data set [8] is Voltage-gated inwardly rectifying potassium channel KCNH2 (Homo sapiens, UniProt Q12809). In words: Binding affinity to human ERG.
Voltage-gated inwardly rectifying potassium channel KCNH2, sequence (Q12809 whole entry): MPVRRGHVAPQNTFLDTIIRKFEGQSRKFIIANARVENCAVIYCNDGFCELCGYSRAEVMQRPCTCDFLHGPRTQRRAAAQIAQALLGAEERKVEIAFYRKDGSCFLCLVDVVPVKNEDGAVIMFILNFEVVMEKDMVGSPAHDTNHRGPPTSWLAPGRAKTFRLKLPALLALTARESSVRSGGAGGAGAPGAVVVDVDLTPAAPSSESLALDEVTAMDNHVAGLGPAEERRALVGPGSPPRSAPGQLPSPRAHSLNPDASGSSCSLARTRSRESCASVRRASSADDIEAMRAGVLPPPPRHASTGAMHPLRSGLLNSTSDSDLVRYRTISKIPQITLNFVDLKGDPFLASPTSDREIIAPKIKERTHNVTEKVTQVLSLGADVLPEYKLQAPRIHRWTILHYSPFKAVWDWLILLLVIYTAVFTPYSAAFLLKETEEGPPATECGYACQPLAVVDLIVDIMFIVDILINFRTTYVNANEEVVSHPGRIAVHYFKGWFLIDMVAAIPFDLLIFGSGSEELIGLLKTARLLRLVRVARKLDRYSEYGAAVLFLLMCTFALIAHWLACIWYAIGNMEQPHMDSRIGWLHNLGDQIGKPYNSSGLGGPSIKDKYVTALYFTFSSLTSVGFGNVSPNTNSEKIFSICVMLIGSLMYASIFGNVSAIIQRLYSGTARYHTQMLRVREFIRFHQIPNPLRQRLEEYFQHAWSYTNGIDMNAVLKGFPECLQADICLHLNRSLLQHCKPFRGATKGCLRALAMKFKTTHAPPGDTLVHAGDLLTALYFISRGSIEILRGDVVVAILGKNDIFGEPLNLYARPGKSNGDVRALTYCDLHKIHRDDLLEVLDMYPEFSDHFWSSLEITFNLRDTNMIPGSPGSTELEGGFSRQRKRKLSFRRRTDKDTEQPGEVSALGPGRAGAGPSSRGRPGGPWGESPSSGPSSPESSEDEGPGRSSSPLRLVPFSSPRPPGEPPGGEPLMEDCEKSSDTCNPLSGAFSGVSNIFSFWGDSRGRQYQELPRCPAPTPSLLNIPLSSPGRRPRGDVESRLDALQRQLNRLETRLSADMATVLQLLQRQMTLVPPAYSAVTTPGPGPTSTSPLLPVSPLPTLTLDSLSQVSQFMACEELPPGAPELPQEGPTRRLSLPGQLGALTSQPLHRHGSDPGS
A short description of data set [9]: Half life in rat. The note with it: in vivo. In kind it is ADME, organism-based.
A short description of data set [10]: Volume of distribution in rat. In kind it is ADME, organism-based. The note with it: in vivo.
Data set [11] can be described thus: Clearance in rat. It counts as ADME, organism-based. The note with it: in vivo.
For data set [12], the target named is T2, Acid-sensing ion channel 3 (Homo sapiens). In words: Inhibition of human ASIC3 expressed in HEK293 cells assessed as inhibition of acid-evoked current at 1000 uM by manual patch-clamp electrophysiology assay. It counts as cell-based.

CYP2D6, sequence (P10635 whole entry): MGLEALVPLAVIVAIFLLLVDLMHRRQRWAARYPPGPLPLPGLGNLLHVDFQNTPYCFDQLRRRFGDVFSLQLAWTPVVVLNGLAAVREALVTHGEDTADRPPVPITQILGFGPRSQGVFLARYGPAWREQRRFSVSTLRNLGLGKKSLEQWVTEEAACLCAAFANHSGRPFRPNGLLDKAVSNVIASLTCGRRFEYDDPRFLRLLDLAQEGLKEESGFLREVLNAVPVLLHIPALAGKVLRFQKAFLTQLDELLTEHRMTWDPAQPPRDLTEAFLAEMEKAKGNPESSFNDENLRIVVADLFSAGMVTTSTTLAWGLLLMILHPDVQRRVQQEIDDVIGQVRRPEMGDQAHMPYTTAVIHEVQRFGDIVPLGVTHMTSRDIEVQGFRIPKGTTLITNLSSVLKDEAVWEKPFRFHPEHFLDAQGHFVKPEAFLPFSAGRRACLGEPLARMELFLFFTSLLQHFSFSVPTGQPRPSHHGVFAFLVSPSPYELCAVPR
CYP2C9, sequence (P11712 whole entry): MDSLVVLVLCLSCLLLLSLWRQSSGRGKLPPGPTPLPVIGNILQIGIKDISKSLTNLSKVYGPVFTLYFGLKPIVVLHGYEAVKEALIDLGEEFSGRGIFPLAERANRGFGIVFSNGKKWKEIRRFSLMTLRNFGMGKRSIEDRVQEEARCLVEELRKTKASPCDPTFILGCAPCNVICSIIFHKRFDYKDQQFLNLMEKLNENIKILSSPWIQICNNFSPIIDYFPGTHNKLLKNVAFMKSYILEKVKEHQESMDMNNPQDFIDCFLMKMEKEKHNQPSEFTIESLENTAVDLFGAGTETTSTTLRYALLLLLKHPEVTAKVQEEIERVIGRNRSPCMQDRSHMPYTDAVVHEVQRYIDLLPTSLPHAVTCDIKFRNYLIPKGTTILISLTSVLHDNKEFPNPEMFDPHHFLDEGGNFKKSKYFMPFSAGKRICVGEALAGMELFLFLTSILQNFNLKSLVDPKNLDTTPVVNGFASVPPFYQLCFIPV
Voltage-dependent L-type calcium channel subunit alpha-1C, sequence (Q13936 whole entry): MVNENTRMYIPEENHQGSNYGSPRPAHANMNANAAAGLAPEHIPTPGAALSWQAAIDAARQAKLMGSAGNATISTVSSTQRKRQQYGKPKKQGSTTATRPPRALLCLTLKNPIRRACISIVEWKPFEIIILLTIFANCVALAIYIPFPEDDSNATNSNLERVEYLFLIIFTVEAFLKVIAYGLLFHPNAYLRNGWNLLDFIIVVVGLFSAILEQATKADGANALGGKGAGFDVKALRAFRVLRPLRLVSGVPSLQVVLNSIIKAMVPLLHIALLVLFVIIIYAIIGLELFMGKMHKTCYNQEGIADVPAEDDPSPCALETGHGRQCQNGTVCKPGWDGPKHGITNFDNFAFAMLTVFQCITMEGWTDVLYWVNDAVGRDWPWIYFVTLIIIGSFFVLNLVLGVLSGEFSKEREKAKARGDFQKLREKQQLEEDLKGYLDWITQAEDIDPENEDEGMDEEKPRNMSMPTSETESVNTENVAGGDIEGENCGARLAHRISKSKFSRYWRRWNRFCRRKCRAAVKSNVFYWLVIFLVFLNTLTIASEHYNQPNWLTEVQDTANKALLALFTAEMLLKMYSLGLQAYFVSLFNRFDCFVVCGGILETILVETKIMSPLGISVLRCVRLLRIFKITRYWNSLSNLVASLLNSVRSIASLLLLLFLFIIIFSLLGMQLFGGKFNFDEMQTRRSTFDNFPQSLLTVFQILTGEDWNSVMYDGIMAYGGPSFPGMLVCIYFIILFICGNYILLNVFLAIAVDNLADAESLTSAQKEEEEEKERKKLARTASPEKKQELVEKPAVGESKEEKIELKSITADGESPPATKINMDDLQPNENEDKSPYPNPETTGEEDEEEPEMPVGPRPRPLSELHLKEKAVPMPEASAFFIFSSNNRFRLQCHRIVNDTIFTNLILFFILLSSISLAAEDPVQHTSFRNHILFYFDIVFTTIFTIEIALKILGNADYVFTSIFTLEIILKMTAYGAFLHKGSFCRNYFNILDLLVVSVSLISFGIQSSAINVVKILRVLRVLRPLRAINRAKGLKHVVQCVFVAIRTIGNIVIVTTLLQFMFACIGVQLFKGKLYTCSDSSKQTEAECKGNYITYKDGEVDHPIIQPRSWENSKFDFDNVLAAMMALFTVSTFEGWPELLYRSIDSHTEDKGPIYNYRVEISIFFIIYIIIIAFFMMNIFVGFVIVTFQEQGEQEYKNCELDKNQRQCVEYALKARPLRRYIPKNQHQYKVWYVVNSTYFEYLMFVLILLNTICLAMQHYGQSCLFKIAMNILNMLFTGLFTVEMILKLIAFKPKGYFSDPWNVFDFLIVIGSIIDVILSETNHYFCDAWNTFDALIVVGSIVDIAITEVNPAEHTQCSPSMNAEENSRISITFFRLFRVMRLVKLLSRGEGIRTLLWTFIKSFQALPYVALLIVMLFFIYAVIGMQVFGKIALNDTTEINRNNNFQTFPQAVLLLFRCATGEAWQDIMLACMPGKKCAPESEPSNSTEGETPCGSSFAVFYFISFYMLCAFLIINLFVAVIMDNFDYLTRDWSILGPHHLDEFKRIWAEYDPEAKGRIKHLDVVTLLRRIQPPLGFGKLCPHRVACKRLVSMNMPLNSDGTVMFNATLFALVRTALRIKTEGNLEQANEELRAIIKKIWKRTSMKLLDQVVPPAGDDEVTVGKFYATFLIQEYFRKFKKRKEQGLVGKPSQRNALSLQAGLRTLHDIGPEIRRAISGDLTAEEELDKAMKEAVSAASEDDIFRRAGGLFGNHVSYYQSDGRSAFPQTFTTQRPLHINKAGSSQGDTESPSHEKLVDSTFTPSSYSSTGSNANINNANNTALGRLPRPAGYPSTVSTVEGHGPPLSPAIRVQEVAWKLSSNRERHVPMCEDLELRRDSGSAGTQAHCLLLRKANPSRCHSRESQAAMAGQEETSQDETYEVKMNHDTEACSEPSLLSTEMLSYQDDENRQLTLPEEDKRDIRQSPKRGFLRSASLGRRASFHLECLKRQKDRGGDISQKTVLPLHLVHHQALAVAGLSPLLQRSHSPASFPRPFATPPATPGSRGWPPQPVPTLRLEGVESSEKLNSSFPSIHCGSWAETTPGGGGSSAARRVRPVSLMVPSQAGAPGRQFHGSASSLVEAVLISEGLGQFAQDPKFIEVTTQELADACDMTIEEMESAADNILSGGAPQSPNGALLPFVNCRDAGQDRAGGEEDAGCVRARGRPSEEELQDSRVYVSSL

As usually defined, the inhibition is the percentage by which the read-out fell short of the control. For orientation: IC50 means the concentration that inhibits the measured activity by half. Usually logD stands for the decadic logarithm of the distribution of all forms, ionised or not, between an organic phase and buffer at a given pH. `CN1CCN(c2ccc(-c3ccc4c(c3)CCNC4)cc2C(F)(F)F)CC1`: the inhibition at 10 µM at CYP2D6, on CYP2C9 and on CYP3A4 was < 35% each time. The fraction unbound in data set [1] is 0.11; in data set [3] it was 0.011. Further, the IC50 in [2] was 3.1 µM; in [4], > 30 µM. Further, the logD in [5] came to 2.13.
Take `Cc1cccc(Nc2ccc(C#CC(C)(C)O)cc2)n1`: in data set [2], the concentration for half-maximal inhibition (IC50) is 17 µM.
The same measure, in the same setting: next, `Brc1ccc2c(c1)CCNC2`: 701 µM.
On the same count and under the same terms, next, `c1cc2c(cc1-c1cnc3c(c1)CCN3)CCNC2`: 19.4 µM.
The same measure, in the same setting: next, `Nc1ccnc(-c2cccc(C#CCCO)c2)c1`: 2.6 µM; `Cc1cc(N2CCc3cc(Br)ccc3C2)c2ccccc2n1`: 27.6 µM.
Turning to `NCc1ccc(-c2c[nH]cn2)cc1`, the IC50 in [2] turned out to be 160 µM.
As for `CCCc1cc(N)c2cc(C(=O)NCCc3ccc(Cl)cc3)ccc2n1`, the IC50 in [2] turned out to be 9.6 µM.
Same read-out and setting: next, `Clc1cc(Cl)cc(-c2ccc3c(c2)CCNC3)c1`: 3.3 µM; `NCc1nc2ccccc2s1`: 363 µM; `Cc1cccc(Nc2nccc3ccoc23)n1`: 9 µM.
Turning to `NCc1cc2ccccc2s1`, the half-inhibitory concentration (IC50) in data set [2] worked out at 97 µM.
On to `CCCc1cc(NC)c2cc(C(=O)NCCc3ccc(Cl)cc3)ccc2n1`, for which, in data set [6], the inhibition came to 3%.
For `Brc1ccc2c(c1)CCN2`, the inhibition in data set [7] came to 12%.
As for `COc1ccc2[nH]cc(CN3CCc4cc(-c5cccc(C(F)(F)F)c5)ccc4C3)c2c1`, in data set [2], the IC50 is 103 µM.
By Ki is commonly meant the dissociation constant of the complex between target and ligand, obtained from inhibition or displacement. The half-life is the time needed for the level to fall by half in the phase considered. High values mean slow loss, low ones fast loss. What is called Vd is a proportionality between amount in the body and measured concentration, not a real space. Lower therefore signals little distribution into tissue. Broadly, the clearance is the rate of elimination divided by the concentration. `Cc1cccc(Nc2ccc(-c3ccc(N4CCNCC4)nc3)cc2)n1`: the inhibition at 10 µM at CYP2D6, on CYP2C9 and against CYP3A4 was < 45% each time. In addition, the Ki in [8] was determined as 0.7 µM. The fraction unbound in data set [1] is 0.098; in data set [3], 0.007. Besides, the IC50 turned out to be 3.8 µM in data set [2] and 20 µM in data set [4]. Besides, the half-life in [9] is 4.8 h. The compound further returned a logD in data set [5] of 1.99. This compound showed a Vd in [10] of 3.5 L/kg. The same compound had a clearance in data set [11] of 11 mL/min/kg.
Take `Nc1ccnc(-c2ccccc2)c1`: in [2], the 50% inhibitory concentration (IC50) turned out to be 6.9 µM.
Same read-out and setting: as for `Nc1ccnc(-c2cccc(C#Cc3ccccc3)c2)c1`, the figure is 1.2 µM; as for `FC(F)(F)c1cccc(-c2ccc3c(c2)CCNC3)c1`, 7.1 µM.
On the same count and under the same terms, next, `Nc1ccc(-c2c[nH]cn2)cc1`: 430 µM; `CN1CCN(c2ccc(-c3ccc4c(c3)CCNC4)cc2)CC1`: 14.4 µM; `CC1CCCCN1c1cccc(-c2ccc3c(c2)CCNC3)n1` (stereo unspecified): 1.7 µM.
Turning to `COc1ccc2[nH]cc(CN3CCc4cc(Br)ccc4C3)c2c1`, in data set [2], the IC50 amounted to 10.9 µM.
Still for that read-out and setting: as for `Nc1cccc(-c2ccccc2)n1`, the figure is 763 µM.
Turning to `Nc1cc(Cc2ccccn2)nc(-c2ccccc2)c1`, the IC50 in [2] is 5.8 µM.
The same measure, in the same setting: next, `Nc1cc(-c2ccccc2)ncn1`: 130 µM.
Same read-out and setting: as for `COc1cccnc1Nc1cccc(C)n1`, the figure is 190 µM.
With `c1ccc(-c2c[nH]cn2)cc1`, the inhibition in [12] is 66%.
